Experimental data from US10478501B2, “Method of treating disorders using a pharmaceutical composition of oligopeptides” (Merck Patent GmbH, priority 2011, dated 2019).

Experiment: Water Vapour Sorption (dynamic vapour experiments)
Type: physicochemical
Settings: 25° C., up to 98% relative humidity, acc. to Ph. Eur. criteria
Excerpt: Preferably, the anhydrates as described herein and especially the crystalline form A1 can be characterised, alternatively or additionally, by dynamic vapour experiments. The results can be obtained by standard techniques as described in Rolf Hilfiker, ‘Polymorphism in the Pharmaceutical Industry’, Wiley-VCH. Weinheim 2006 (Chapter 9: Water Vapour Sorption, and references therein). […] Eur. criteria.

- hygroscopicity (Water Vapour Sorption behaviour): non-hygroscopic
Structure (SMILES): CC(C)[C@H]1C(=O)N[C@@H](CCCNC(=N)N)C(=O)NCC(=O)N[C@@H](CC(=O)O)C(=O)N[C@H](Cc2ccccc2)C(=O)N1C [crystalline form A1, cyclo-(Arg-Gly-Asp-DPhe-NMeVal)]
